Experimental data taken from US20100323972A1, “NON-IMMUNOSUPPRESSIVE CYCLOSPORIN FOR THE TREATMENT OF MUSCULAR DYSTROPHY” (priority 2008, published 2010).
“Also recorded” adds a separate entry of the source.

Columns and labels:
mouse model of Duchenne = settings: inhibition of calcineurin; cited from earlier work
scgd−/− mice [1] = assay: Muscle weight-to-tibia length ratios (pseudo-hypertrophy) in treated scgd−/− mice; assay type: in vivo
Description: (§1) Different dissected muscles, gastrocnemius, quadriceps, tibialis anterior and heart muscles, were weighed and muscle weight (MW)-to-tibia length (TL) ratios (MW/TL) were determined. Results in FIG. 2(a) and FIG. 2(c) are presented as means±SEM (standard error of the means). A one-way ANOVA was used to compare means among 3 or more independent groups. A Newman-Keuls post hoc test was applied whenever multiple comparisons were conducted using InStat 3.0 (GraphPad software from Science Inc.). Values were considered significant when p<0.05.
In response to the numerous degeneration/regeneration cycles, scgd—/− mice initially presented with hypertrophic skeletal muscles as are seen in subjects suffering from LGMD. […] Reduction of skeletal muscular hypertrophy was about 1.3 fold in gastrocnemius (Gastroc.), quadriceps (Quad.) and tibialis anterior (TA) and about 1.2 fold in heart muscle (Heart) of D-[MeAla]^3-[EtVal]^4-CsA-treated scgd−/− mice compared to vehicle-treated animals.

scgd−/− mice [2] = assay: Hematoxylin- and eosin-stained histological sections of quadriceps; assay type: in vivo; settings: 50 mg/kg/day subcutaneous
Text: FIG. 2(b) represents reduction of muscle pathology after administration of D-[MeAla]^3-[EtVal]^4-CsA in Scgd−/− mice observed in representative hematoxylin- and eosin-stained sections of quadriceps from wild type (Wt) mice and scgd−/− mice treated with D-[MeAla]^3-[EtVal]^4-CsA. Corresponding vehicle controls are also shown.
as §1
Reduced pathology in the scgd−/− mice treated with D-[MeAla]^3-[EtVal]^4-CsA was also observed in histological slides of quadriceps (FIG. 2(b)).

scgd−/− mice [3] = assay: Percentage fibrosis in muscles (hydroxyproline content / trichrome-stained sections); assay type: in vivo; settings: trichrome-stained sections of diaphragm, tibialis anterior, gastrocnemius, quadriceps
Text: FIG. 2(c) represents reduction of muscle pathology after administration of D-[MeAla]^3-[EtVal]^4-CsA in scgd−/− mice as assessed by quantitation of fibrotic areas in trichrome-stained sections from diaphragm (Diaph.), tibialis anterior (TA), gastrocnemius (Gastroc.), quadriceps (Quad). Assessed were sections from wild type (Wt) mice treated with either vehicle (white bar) or D-[MeAla]^3-[EtVal]^4-CsA (black bar) and from scgd−/− mice treated with either vehicle (gray bar or second to last bar in group) or D-[MeAla]^3-[EtVal]^4-CsA (dotted bar or last bar of group).
Different dissected muscles, gastrocnemius, quadriceps, tibialis anterior and heart muscles, were weighed and muscle weight (MW)-to-tibia length (TL) ratios (MW/TL) were determined. Results in FIG. 2(a) and FIG. 2(c) are presented as means±SEM (standard error of the means). A one-way ANOVA was used to compare means among 3 or more independent groups. […]
Percentage fibrosis was assessed by means of a biochemical assay that quantified hydroxyproline content (Parsons et al., Am. J. Pathol., 2006, 168:1975-1985) in diaphragm (Diaph.), tibialis anterior (TA), gastrocnemius (Gastroc.) and quadriceps (Quad) muscles from wild type and scgd−/− mice treated or not treated with D-[MeAla]^3-[EtVal]^4-CsA.

scgd−/− mice [4] = assay: Quantitation of the distribution of fiber areas in skeletal muscles; assay type: in vivo; settings: 50 mg/kg/day subcutaneous for 6 weeks; for Fiber area distribution / heterogeneity: 50 mg/kg/day
Text: (§2) FIG. 3(a) represents reduction of fiber area heterogeneity in muscle from scgd−/− mice after the administration of D-[MeAla]^3-[EtVal]^4-CsA as assessed by quantitation of the distribution of fiber areas in tibialis anterior (muscle). The study included wild type (Wt) mice treated with either vehicle (white bar) or D-[MeAla]^3-[EtVal]^4-CsA (black bar) and scgd−/− mice treated with either vehicle (gray bar or second to last bar in group) or D-[MeAla]^3-[EtVal]^4-CsA (dotted bar or last bar of group).
as §2, with “3(b)” for “3(a)”, “gastrocnemius. Included in the” for “tibialis anterior (muscle). The”, “were” for “included”
as §2, with “3(c)” for “3(a)”, “quadriceps muscle. Measurements were carried out on” for “tibialis anterior (muscle). The study included”
Scgd−/− mice were administered subcutaneously with either D-[MeAla]^3-[EtVal]^4-CsA at a dose of 50 mg/kg/day or vehicle for 6 weeks. […] The administration of the non-immunosuppressive D-[MeAla]^3-[EtVal]^4-CsA to scgd−/− mice reduced the regeneration rate of the fibers and normalized partially the distribution of small and large fibers.

Row | Substance | Effect on muscle pathology (mouse model of Duchenne) | Reduction of skeletal muscular hypertrophy (MW/TL) compared to vehicle-treated animals (scgd−/− mice [1]; gastrocnemius, 50 mg/kg/day subcutaneous, 4 to 10 weeks of age) | Effect on disease-associated increase in muscle weight (FIG. 2(a)) (scgd−/− mice [1]; gastrocnemius, quadriceps, tibialis anterior, heart) | Reduction of hypertrophy (MW/TL) compared to vehicle-treated animals (scgd−/− mice [1]; heart muscle, 50 mg/kg/day subcutaneous, 4 to 10 weeks of age) | Reduction of skeletal muscular hypertrophy (MW/TL) compared to vehicle-treated animals (scgd−/− mice [1]; quadriceps, 50 mg/kg/day subcutaneous, 4 to 10 weeks of age) | Reduction of skeletal muscular hypertrophy (MW/TL) compared to vehicle-treated animals (scgd−/− mice [1]; tibialis anterior, 50 mg/kg/day subcutaneous, 4 to 10 weeks of age) | Myofiber organization and fiber area distributions in histological slides (scgd−/− mice [2]) | Effect on fibrotic areas (FIG. 2(c)) (scgd−/− mice [3]) | Fiber area distribution / heterogeneity (scgd−/− mice [4]; gastrocnemius) | Fiber area distribution / heterogeneity (scgd−/− mice [4]; quadriceps) | Population of small fibers compared to vehicle-treated scgd−/− mice (scgd−/− mice [4]; three skeletal muscles) | Fiber area distribution / heterogeneity (scgd−/− mice [4]; tibialis anterior)
1 | cyclosporin A [CsA] | deleterious |  |  |  |  |  |  |  |  |  |  | 
2 | [D-MeAla]^3-[EtVal]^4-CsA [D-[MeAla]^3-[EtVal]^4-CsA] |  | about 1.3 fold | prevents an increase in muscle weight | about 1.2 fold | about 1.3 fold | about 1.3 fold | Improvement in myofiber organization and normalization of fiber area distributions | reduced fibrosis | normalized fiber area heterogeneity; also recorded: partially normalized | normalized fiber area heterogeneity; also recorded: partially normalized | Less small fibers | normalized fiber area heterogeneity; also recorded: partially normalized
